Results taken from patent US20230312652A1, “NOVEL PEPTIDES AND USES THEREOF” (Aarhus Universitet, priority 2020, published 2023).
Where a SMILES comes first, the peptide text is derived from it.

Tests used:
CREB [1] = assay: CREB activation (phosphorylation on serine 133) in wild-type cortical neurons, western blotting; format: cell-based, mouse; settings: 20 minutes, 7 days in vitro
Protocol: (§1) To assess the ability of peptides P1, P2 and P6, respectively, to activate transcription factor CREB, cortical neurons were isolated from p0 wild-type mice and seeded in a density of 500.000 per well. After 7 days in vitro the neurons were stimulated with the different peptide variants at 1 uM in neurobasal A media and incubated at 37° C. and 5% C02 for 20 minutes. Hereafter, the neurons were lysed in lysis buffer containing DTT and cOmplete cocktail protease inhibitor and subsequently sonicated to disrupt the nuclear membrane. The phosphorylation of CREB on serine 133 was validated by western blotting normalized to beta-actin. As control, cells were stimulated with a scrambled peptide (Scr). Student's t-test was used for statistical analysis.
as §1, with “The” for “To assess the”, “peptide P1” for “peptides P1, P2”, “a linear peptide analog of P1 with acetylated N- and amidated C-terminals (referred to as LP1)” for “P6, respectively,”, “CREB was assessed. Cortical” for “CREB, cortical”, “20 nM” for “1 uM”, “CO2” for “C02”

[2] = system: AMPK (T172) and Raptor (S792); assay: Phosphorylation of AMPK (T172) and Raptor (S792) in cortical neurons, western blotting; format: cell-based, mouse; settings: 1 uM, 20 minutes
Protocol: To assess the ability of peptide P1 to activate AMPK and subsequently inactivate the mTOR complex, mouse cortical neurons were isolated from p0 wild-type mice and seeded in a density of 250,000 per well in a 12-well tray. After 7 days in vitro the neurons were stimulated with P1 in neurobasal A media and incubated at 37° C. and 5% CO2 for 20 minutes. Hereafter, the neurons were lysed in lysis buffer containing DTT and cOmplete cocktail protease inhibitor. The phosphorylation of AMPK (T172) and Raptor (S792) was validated by western blotting normalized to beta-actin.

SH-SY5Y cells = assay: Lysosomal acidification in SH-SY5Y cells, LysoSensor Yellow/Blue DND-160; format: cell-based, human; settings: 1 uM, 4 hours
Protocol: SH-SY5Y were seeded in poly-L coated black 96 well plate with clear bottom at a density of ˜3×10^4. The following day, the cells were stimulated with 1 uM P1 (SEQ ID NO: 1) for 4 hours and subsequently incubated with LysoSensor™ Yellow/Blue DND-160 (10 uM) for 20 min. Cells were rinsed with PBS and excitation 340 & 380 and emission 535 was read in a plate-reader. A pH calibration curve buffer was likewise measured. Calculation of the fluorescence intensity ratio of excitation (340/380) results in an average whole-cell intraorganellar pH reflective of all LysoSensor™ Yellow/Blue DND-160-labeled organelles combined. Using the generated linear trendline from the standard curve for pH and 340/380 intensity ratio, calculate the intraorganellar pH of samples.

[3] = system: HTT in GM01650E fibroblasts; assay: Total HTT levels in fibroblasts from a healthy individual (GM01650E); format: cell-based, human; settings: 1 uM, healthy cell line, 2-4 hours
Protocol: GM04719 was seeded at 30,000-50,000 per well in a 96-well. The following day, the cells were treated with 1 uM of P1 and incubated at 37° C. and 5% CO2 at timepoints 0-24 hours. Hereafter, the cells were lysed in RIPA lysis buffer containing cOmplete cocktail protease inhibitor. Total Huntingtin levels were analysed using antibody mab2166 (Sigma-Aldrich) by western blotting and normalized to beta-actin. To determine, whether P1 also clears the healthy allele, we further assessed levels of total HTT in fibroblast derived from a healthy individual (GM01650E), bought from Coriell Biobank.

ST HDH cells (Q111, Q7) = assay: Active mitochondrial mass in ST HDH cells, MitoTracker; format: cell-based, mouse
Protocol: The impact on mitochondrial function was assessed in ST HDH cells (mouse striatal cell line) expressing either HTT with a 111 polyglutamine stretch (Q111) or a 7 polyglutamine stretch (Q7), thereby serving as a model of HD. The cells were stimulated with P1 at timepoints between 0-24 hours and mitochondrial mass was subsequently measured using MitoTracker—a probe which binds to active mitochondria. Signal was measured in plate-reader at ex/em […].

CREB [4] = assay: CREB activation in striatum and hippocampus of wild-type mice after IV injection; format: in vivo, mouse; settings: 0.26 mg/kg IV, 1 hour after injection
Protocol: To assess this, 8 weeks old wild-type mice were injected intravenously with either 0.26 mg/kg of peptide P1 or LP1 dissolved in saline. 1 hour after the injection, the mice were sacrificed by cervical dislocation and striatal tissue was isolated by dissection and immediately lysed using a TissueLyser in lysis buffer containing cOmplete and DTT. The samples were subsequently homogenized by sonication. The phosphorylation of CREB on serine 133 was subsequently validated by western blotting. The levels of phosphorylated CREB were normalized to the corresponding beta-actin levels. Student's t-test was used for statistical analysis.

[5] = Liver microsome stability, human; format: in vitro ADME; settings: 2 μM, up to 60 minutes
Protocol: Reactions were stopped at timepoints between 0-60 min. and samples analysed by LCMS.

[6] = Stability in L-His buffer formulation with hyaluronidase; format: physicochemical; settings: up to 7 days
Protocol: Buffer solution containing 4.4 mM L-histidine, 140 mM NaCl, 0.2% w/V Tween 20 and 1500 IU/mL hyaluronidase was incubated with 1 mM P1 at −20° C., 4° C. and 25° C. for up to 7 days. LCMS was used to ascertain the amount of P1 remaining in the solutions.

[7] = 2 μM, up to 60 minutes
Protocol: S9 fractions from 5 different species were incubated with 2 μM P1 (SEQ ID NO: 1) or 7-Ethoxycoumarin (positive control for clearance) and necessary reactants for up to 60 minutes at 37° C. Reactions were stopped and samples were analysed by LCMS.

## CSCC[C@@H]1NC(=O)[C@H](C(C)C)NC(=O)[C@H](CC(=O)O)NC(=O)[C@H](CCC(=O)O)NC(=O)[C@H](CCC(=O)O)NC(=O)[C@H](Cc2c[nH]cn2)NC(=O)[C@H](CCC(=O)O)NC(=O)[C@H](C(C)C)NC(=O)[C@@H]2CCCN2C(=O)[C@H](CCC(=O)O)NC(=O)[C@H]([C@@H](C)O)NC1=O [Peptide P1, [MTEPVEHEEDV]] (cyclo(MTEPVEHEEDV))
CREB [1]; 20 nM
  activation of CREB (phosphorylation on serine 133) compared to scrambled peptide: activated CREB
CREB [1]; 1 uM
  activation of CREB (phosphorylation on serine 133) compared to scrambled peptide: markedly activated CREB
[2]
  AMPK phosphorylation on T172: activates AMPK
  Raptor phosphorylation on S792: inactivates Raptor
SH-SY5Y cells
  340/380 intensity ratio: reduction
  drop in lysosomal pH: ~0.2 pH
[3]
  total HTT levels: increasing the total HTT levels
ST HDH cells (Q111, Q7); Q7 cells
  mitochondrial mass: mitochondrial mass is increased
ST HDH cells (Q111, Q7); Q111 cells, 24 hours
  mitochondrial mass: increased above the baseline from the healthy cell line
CREB [4]
  pCREB (S133) in hippocampus: performed markedly better than LP1
  pCREB (S133) in striatum: performed markedly better than LP1
[5]
  clearance and stability in liver microsomes: low clearance and high stability
[6]; 1 mM P1, 4° C.
  stability in buffer (amount remaining, LCMS): no stability issues
[6]; 1 mM P1, 25° C.
  stability in buffer (amount remaining, LCMS): could affect stability after 4 days
[6]; 1 mM P1, −20° C.
  stability in buffer (amount remaining, LCMS): no stability issues
[7]; 5 different species
  clearance and stability in liver S9 fractions: low clearance and high stability
[7]; mouse and human
  stability in mouse and human S9 liver fractions: some stability is lost
